Reference: PubChem BioAssay AID2060599 (Molecular Pharmacology Branch, DTP, NCI, 2025)

System: 817829-284-R-J1-PDC complex spheroids, viability
Experiment: Anticancer human tumor 817829-284-R-J1-PDC patient-derived colon adenocarcinoma cell line growth inhibition [CLK]
Conditions: for IC50: curve of first compound; for viability, T/C: stronger effect = lower value
Outline: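 Patient-derived tumor cells grown as complex spheroids with HUVEC endothelial cells and mesenchymal stem cells, treated with drug combinations. Concentrations descend in half-log steps from near clinical Cmax, or from 10 microM if Cmax unknown.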

[1] = second compound 0.0316 µM, first compound 0.0316 µM
[2] = second compound 0.0316 µM, first compound 0.1 µM
[3] = second compound 0.0316 µM, first compound 0.316 µM
[4] = second compound 0.0316 µM, first compound 1 µM
[5] = second compound 0.1 µM, first compound 0.0316 µM
[6] = second compound 0.1 µM, first compound 0.1 µM
[7] = second compound 0.1 µM, first compound 0.316 µM
[8] = second compound 0.1 µM, first compound 1 µM
[9] = second compound 0.316 µM, first compound 0.0316 µM
[10] = second compound 0.316 µM, first compound 0.1 µM
[11] = second compound 0.316 µM, first compound 0.316 µM
[12] = second compound 0.316 µM, first compound 1 µM
[13] = second compound 1 µM, first compound 0.0316 µM
[14] = second compound 1 µM, first compound 0.1 µM
[15] = second compound 1 µM, first compound 0.316 µM
[16] = second compound 1 µM, first compound 1 µM
[17] = second compound 3.16 µM, first compound 0.0316 µM
[18] = second compound 3.16 µM, first compound 0.1 µM
[19] = second compound 3.16 µM, first compound 0.316 µM
[20] = second compound 3.16 µM, first compound 1 µM
[21] = second compound 10 µM, first compound 0.0316 µM
[22] = second compound 10 µM, first compound 0.1 µM
[23] = second compound 10 µM, first compound 0.316 µM
[24] = second compound 10 µM, first compound 1 µM
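Also: spheroids exposed to the agents for seven days before readout.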

CC(=O)O[C@H]1C(=O)[C@@]2(C)[C@H]([C@H](OC(=O)c3ccccc3)[C@]3(O)C[C@H](OC(=O)[C@H](O)[C@@H](NC(=O)c4ccccc4)c4ccccc4)C(C)=C1C3(C)C)[C@]1(OC(C)=O)CO[C@@H]1C[C@@H]2O + CN1CCN(c2cc(C(=O)Nc3cc4cc(-c5cnn(C)c5)ccc4cn3)ccn2)CC1
IC50 (second compound 0.0316 µM): < 31.6 nM | IC50 (second compound 0.1 µM): < 31.6 nM | IC50 (second compound 0.316 µM): < 31.6 nM | IC50 (second compound 1 µM): < 31.6 nM | IC50 (second compound 3.16 µM): < 31.6 nM | IC50 (second compound 10 µM): < 31.6 nM | viability, T/C [1]: 5.38% | viability, T/C [2]: 5.12% | viability, T/C [3]: 4.55% | viability, T/C [4]: 4.77% | viability, T/C (second compound 0.0316 µM, first compound 3.16 µM): 5.22% | viability, T/C (second compound 0.0316 µM, first compound 10 µM): 5.27% | viability, T/C [5]: 5.23% | viability, T/C [6]: 4.54% | viability, T/C [7]: 4.59% | viability, T/C [8]: 4.02% | viability, T/C (second compound 0.1 µM, first compound 3.16 µM): 4.74% | viability, T/C (second compound 0.1 µM, first compound 10 µM): 5.63% | viability, T/C [9]: 2.41% | viability, T/C [10]: 2.26% | viability, T/C [11]: 2.43% | viability, T/C [12]: 2.04% | viability, T/C (second compound 0.316 µM, first compound 3.16 µM): 2.2% | viability, T/C (second compound 0.316 µM, first compound 10 µM): 2.45% | viability, T/C [13]: 0.09% | viability, T/C [14]: 0.1% | viability, T/C [15]: 0.09% | viability, T/C [16]: 0.07% | viability, T/C (second compound 1 µM, first compound 3.16 µM): 0.09% | viability, T/C (second compound 1 µM, first compound 10 µM): 0.11% | viability, T/C [17]: 0.11% | viability, T/C [18]: 0.14% | viability, T/C [19]: 0.13% | viability, T/C [20]: 0.16% | viability, T/C (second compound 3.16 µM, first compound 3.16 µM): 0.1% | viability, T/C (second compound 3.16 µM, first compound 10 µM): 0.14% | viability, T/C [21]: 0.07% | viability, T/C [22]: 0.1% | viability, T/C [23]: 0.11% | viability, T/C [24]: 0.09% | viability, T/C (second compound 10 µM, first compound 3.16 µM): 0.11% | viability, T/C (second compound 10 µM, first compound 10 µM): 0.12%

CCc1c2c(nc3ccc(O)cc13)-c1cc3c(c(=O)n1C2)COC(=O)[C@]3(O)CC + CN1CCN(c2cc(C(=O)Nc3cc4cc(-c5cnn(C)c5)ccc4cn3)ccn2)CC1
IC50 (second compound 0.0316 µM): < 3.16 nM | IC50 (second compound 0.1 µM): < 3.16 nM | IC50 (second compound 0.316 µM): < 3.16 nM | IC50 (second compound 1 µM): < 3.16 nM | IC50 (second compound 3.16 µM): < 3.16 nM | IC50 (second compound 10 µM): < 3.16 nM | viability, T/C (second compound 0.0316 µM, first compound 0.00316 µM): 18.9% | viability, T/C (second compound 0.0316 µM, first compound 0.01 µM): 14.8% | viability, T/C [1]: 12.5% | viability, T/C [2]: 6.83% | viability, T/C [3]: 4.71% | viability, T/C [4]: 2.93% | viability, T/C (second compound 0.1 µM, first compound 0.00316 µM): 14.1% | viability, T/C (second compound 0.1 µM, first compound 0.01 µM): 11.4% | viability, T/C [5]: 7.3% | viability, T/C [6]: 4.95% | viability, T/C [7]: 3.31% | viability, T/C [8]: 1.84% | viability, T/C (second compound 0.316 µM, first compound 0.00316 µM): 2.41% | viability, T/C (second compound 0.316 µM, first compound 0.01 µM): 2.17% | viability, T/C [9]: 1.78% | viability, T/C [10]: 0.79% | viability, T/C [11]: 0.28% | viability, T/C [12]: 0.34% | viability, T/C (second compound 1 µM, first compound 0.00316 µM): 0.09% | viability, T/C (second compound 1 µM, first compound 0.01 µM): 0.12% | viability, T/C [13]: 0.2% | viability, T/C [14]: 0.27% | viability, T/C [15]: 0.27% | viability, T/C [16]: 0.41% | viability, T/C (second compound 3.16 µM, first compound 0.00316 µM): 0.14% | viability, T/C (second compound 3.16 µM, first compound 0.01 µM): 0.18% | viability, T/C [17]: 0.19% | viability, T/C [18]: 0.21% | viability, T/C [19]: 0.31% | viability, T/C [20]: 0.67% | viability, T/C (second compound 10 µM, first compound 0.00316 µM): 0.05% | viability, T/C (second compound 10 µM, first compound 0.01 µM): 0.1% | viability, T/C [21]: 0.12% | viability, T/C [22]: 0.13% | viability, T/C [23]: 0.15% | viability, T/C [24]: 0.1%
